Reference: patent publication US11260049B2, “TRPV4 antagonists” (GlaxoSmithKline Intellectual Property (No. 2) Limited, priority 2016, dated 2022)
pIC50: −log10 of the molar value. Read-outs that look alike come from different tables or passages of the source.

Target: human TRPV4 (Homo sapiens (Human), UniProt Q9HBA0)
Experiment: FLIPR assay for hTRPV4 expressed in BHK cells
Format: cell-based
Experimental: FLIPR Assay for hTRPV4 Expressed in BHK Cells:
TRPV4 channel activation results in an influx of divalent and monovalent cations including calcium. The resulting changes in intracellular calcium were monitored using a calcium specific fluorescent dye Fluo-4 (MDS Analytical Technologies). BHK/AC9 cells transduced with BacMam virus expressing the human TRPV4 gene at a MOI of 78 were plated in a 384 well poly-D lysine coated plate (15,000 cells/well in 50 μL culture medium containing DMEM/F12 with 15 mM HEPES, 10% FBS, 1% Penicillin-Streptomycin and 1% L-glutamine). Cells were incubated for 24 hours at 37° C. and 5% CO2. Culture medium was then aspirated using a Tecan plate-washer and replaced with 20 μL/well of dye loading buffer: HBSS, 500 μM Brilliant Black (MDS Analytical Technologies), and 2 μM Fluo-4 AM. Dye loaded plates were then incubated in the dark at room temperature for 1˜1.5 hours.

[1] = at least one set of experimental runs, TRPV4 FLIPR assay, read-out: average IC50
[2] = inhibition of Agonist Compound (EC80)-induced calcium signal, BHK/AC9 cells expressing human TRPV4, read-out: IC50

Sequence of human TRPV4 (Q9HBA0 whole entry): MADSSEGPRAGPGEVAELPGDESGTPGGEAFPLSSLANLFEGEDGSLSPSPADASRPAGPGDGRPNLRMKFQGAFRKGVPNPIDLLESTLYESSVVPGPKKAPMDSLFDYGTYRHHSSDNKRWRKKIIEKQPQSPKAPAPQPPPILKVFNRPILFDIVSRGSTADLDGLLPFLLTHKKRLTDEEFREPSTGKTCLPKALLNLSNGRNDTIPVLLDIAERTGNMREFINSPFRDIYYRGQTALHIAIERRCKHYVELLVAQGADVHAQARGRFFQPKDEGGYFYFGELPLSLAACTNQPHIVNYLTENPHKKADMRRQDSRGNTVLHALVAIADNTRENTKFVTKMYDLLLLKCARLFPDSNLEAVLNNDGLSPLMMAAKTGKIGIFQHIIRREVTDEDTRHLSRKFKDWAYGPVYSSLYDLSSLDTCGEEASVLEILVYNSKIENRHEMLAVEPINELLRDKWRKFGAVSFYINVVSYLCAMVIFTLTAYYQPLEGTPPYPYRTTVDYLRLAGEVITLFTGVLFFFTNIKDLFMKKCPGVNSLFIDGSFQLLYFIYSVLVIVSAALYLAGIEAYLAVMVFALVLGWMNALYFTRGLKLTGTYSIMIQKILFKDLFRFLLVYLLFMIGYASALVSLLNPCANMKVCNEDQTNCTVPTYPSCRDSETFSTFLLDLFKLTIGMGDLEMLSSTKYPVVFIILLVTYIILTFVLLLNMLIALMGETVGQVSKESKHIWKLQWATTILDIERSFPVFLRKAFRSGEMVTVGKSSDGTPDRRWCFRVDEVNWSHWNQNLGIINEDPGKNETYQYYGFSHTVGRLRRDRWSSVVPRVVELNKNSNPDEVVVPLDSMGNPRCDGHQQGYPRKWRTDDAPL

SMILES | pIC50 [1] | pIC50 [2]
N#Cc1ccc(S(=O)(=O)N2C[C@H](S(=O)(=O)c3ccc(Cl)cn3)[C@](O)(CO)C2)c(Cl)c1 [Example 1, 3-chloro-4-(((3R,4S)-4-((5-chloropyridin-2-yl)sulfonyl)-3-hydroxy-3-(hydroxymethyl)pyrrolidin-1-yl)sulfonyl)benzonitrile] | 8.30 | 8.00 to 10.00
N#Cc1ccc(S(=O)(=O)N2C[C@H](S(=O)(=O)c3ccc(Cl)cc3)[C@](O)(CO)C2)c(Cl)c1 [Example 2, 3-chloro-4-(((3R,4S)-4-((4-chlorophenyl)sulfonyl)-3-hydroxy-3-(hydroxymethyl)pyrrolidin-1-yl)sulfonyl)benzonitrile] |  | 8.00 to 10.00
N#Cc1ccc(S(=O)(=O)N2C[C@H](S(=O)(=O)c3ccc(C#N)c(F)c3)[C@@](O)(CO)C2)c(Cl)c1 [Example 3, 4-(((3S,4S)-1-((2-chloro-4-cyanophenyl)sulfonyl)-4-hydroxy-4-(hydroxymethyl)pyrrolidin-3-yl)sulfonyl)-2-fluorobenzonitrile] |  | 8.00 to 10.00
N#Cc1ccc(S(=O)(=O)[C@H]2CN(S(=O)(=O)c3ccccc3Cl)C[C@]2(O)CO)cc1F [Example 4, 4-(((3S,4S)-1-((2-chlorophenyl)sulfonyl)-4-hydroxy-4-(hydroxymethyl)pyrrolidin-3-yl)sulfonyl)-2-fluorobenzonitrile] |  | 7.00 to 8.00
N#Cc1ccc(S(=O)(=O)[C@H]2CN(S(=O)(=O)c3ccc(F)cc3Cl)C[C@]2(O)CO)cc1F [Example 5, 4-(((3S,4S)-1-((2-chloro-4-fluorophenyl)sulfonyl)-4-hydroxy-4-(hydroxymethyl)pyrrolidin-3-yl)sulfonyl)-2-fluorobenzonitrile] |  | 7.00 to 8.00
Cc1ccc(S(=O)(=O)N2C[C@H](S(=O)(=O)c3ccc(C#N)c(F)c3)[C@@](O)(CO)C2)c(Cl)c1 [Example 6, 4-(((3S,4S)-1-((2-chloro-4-methylphenyl)sulfonyl)-4-hydroxy-4-(hydroxymethyl)pyrrolidin-3-yl)sulfonyl)-2-fluorobenzonitrile] |  | 7.00 to 8.00
N#Cc1ccc(S(=O)(=O)[C@H]2CN(S(=O)(=O)c3ccc(C(F)(F)F)cc3Cl)C[C@]2(O)CO)cc1F [Example 7, 4-(((3S,4S)-1-((2-chloro-4-(trifluoromethyl)phenyl)sulfonyl)-4-hydroxy-4-(hydroxymethyl)pyrrolidin-3-yl)sulfonyl)-2-fluorobenzonitrile] |  | 7.00 to 8.00
N#Cc1ccc(S(=O)(=O)[C@H]2CN(S(=O)(=O)c3ccc(OC(F)(F)F)cc3Cl)C[C@]2(O)CO)cc1F [Example 8, 4-(((3S,4S)-1-((2-chloro-4-(trifluoromethoxy)phenyl)sulfonyl)-4-hydroxy-4-(hydroxymethyl)pyrrolidin-3-yl)sulfonyl)-2-fluorobenzonitrile] |  | 7.00 to 8.00
N#Cc1ccc(S(=O)(=O)[C@H]2CN(S(=O)(=O)c3cc(F)c(Cl)cc3Cl)C[C@]2(O)CO)cc1F [Example 9, 4-(((3S,4S)-1-((2,4-dichloro-5-fluorophenyl)sulfonyl)-4-hydroxy-4-(hydroxymethyl)pyrrolidin-3-yl)sulfonyl)-2-fluorobenzonitrile] |  | 7.00 to 8.00
N#Cc1ccc(S(=O)(=O)N2C[C@H](S(=O)(=O)c3ccc(C#N)c(F)c3)[C@](O)(CO)C2)c(Cl)c1 [Example 10, 4-(((3S,4R)-1-((2-chloro-4-cyanophenyl)sulfonyl)-4-hydroxy-4-(hydroxymethyl)pyrrolidin-3-yl)sulfonyl)-2-fluorobenzonitrile] |  | 8.00 to 10.00
N#Cc1ccc(S(=O)(=O)[C@H]2CN(S(=O)(=O)c3ccccc3Cl)C[C@@]2(O)CO)cc1F [Example 11, 4-(((3S,4R)-1-((2-chlorophenyl)sulfonyl)-4-hydroxy-4-(hydroxymethyl)pyrrolidin-3-yl)sulfonyl)-2-fluorobenzonitrile] |  | 7.00 to 8.00
N#Cc1ccc(S(=O)(=O)[C@H]2CN(S(=O)(=O)c3ccc(F)cc3Cl)C[C@@]2(O)CO)cc1F [Example 12, 4-(((3S,4R)-1-((2-chloro-4-fluorophenyl)sulfonyl)-4-hydroxy-4-(hydroxymethyl)pyrrolidin-3-yl)sulfonyl)-2-fluorobenzonitrile] |  | 8.00 to 10.00
Cc1ccc(S(=O)(=O)N2C[C@H](S(=O)(=O)c3ccc(C#N)c(F)c3)[C@](O)(CO)C2)c(Cl)c1 [Example 13, 4-(((3S,4R)-1-((2-chloro-4-methylphenyl)sulfonyl)-4-hydroxy-4-(hydroxymethyl)pyrrolidin-3-yl)sulfonyl)-2-fluorobenzonitrile] |  | 8.00 to 10.00
N#Cc1ccc(S(=O)(=O)[C@H]2CN(S(=O)(=O)c3ccc(C(F)(F)F)cc3Cl)C[C@@]2(O)CO)cc1F [Example 14, 4-(((3S,4R)-1-((2-chloro-4-(trifluoromethyl)phenyl)sulfonyl)-4-hydroxy-4-(hydroxymethyl)pyrrolidin-3-yl)sulfonyl)-2-fluorobenzonitrile] |  | 8.00 to 10.00
N#Cc1ccc(S(=O)(=O)[C@H]2CN(S(=O)(=O)c3ccc(OC(F)(F)F)cc3Cl)C[C@@]2(O)CO)cc1F [Example 15, 4-(((3S,4R)-1-((2-chloro-4-(trifluoromethoxy)phenyl)sulfonyl)-4-hydroxy-4-(hydroxymethyl)pyrrolidin-3-yl)sulfonyl)-2-fluorobenzonitrile] |  | 7.00 to 8.00
N#Cc1ccc(S(=O)(=O)[C@H]2CN(S(=O)(=O)c3cc(F)c(Cl)cc3Cl)C[C@@]2(O)CO)cc1F [Example 16, 4-(((3S,4R)-1-((2,4-dichloro-5-fluorophenyl)sulfonyl)-4-hydroxy-4-(hydroxymethyl)pyrrolidin-3-yl)sulfonyl)-2-fluorobenzonitrile] |  | 8.00 to 10.00
N#Cc1cc(Cl)ccc1S(=O)(=O)N1C[C@H](S(=O)(=O)c2ccc(Cl)cc2)[C@](O)(CO)C1 [Example 17, 5-chloro-2-(((3R,4S)-4-((4-chlorophenyl)sulfonyl)-3-hydroxy-3-(hydroxymethyl)pyrrolidin-1-yl)sulfonyl)benzonitrile] |  | 8.00 to 10.00
O=S(=O)(c1ccc(Cl)cc1)[C@H]1CN(S(=O)(=O)c2ccc(Cl)cc2Cl)C[C@@]1(O)CO [Example 18, (3R,4S)-4-((4-chlorophenyl)sulfonyl)-1-((2,4-dichlorophenyl)sulfonyl)-3-(hydroxymethyl)pyrrolidin-3-ol] |  | 7.00 to 8.00
N#Cc1ccc(S(=O)(=O)N2C[C@H](S(=O)(=O)c3ccc(Cl)cc3)[C@](O)(CO)C2)c(C(F)(F)F)c1 [Example 19, 4-(((3R,4S)-4-((4-chlorophenyl)sulfonyl)-3-hydroxy-3-(hydroxymethyl)pyrrolidin-1-yl)sulfonyl)-3-(trifluoromethyl)benzonitrile] |  | 8.00 to 10.00
Cc1cc(C#N)ccc1S(=O)(=O)N1C[C@H](S(=O)(=O)c2ccc(Cl)cc2)[C@](O)(CO)C1 [Example 20, 4-(((3R,4S)-4-((4-chlorophenyl)sulfonyl)-3-hydroxy-3-(hydroxymethyl)pyrrolidin-1-yl)sulfonyl)-3-methylbenzonitrile] |  | 7.00 to 8.00
N#Cc1ccc(S(=O)(=O)N2C[C@H](S(=O)(=O)c3ccc(Cl)cc3)[C@](O)(CO)C2)c(F)c1 [Example 21, 4-(((3R,4S)-4-((4-chlorophenyl)sulfonyl)-3-hydroxy-3-(hydroxymethyl)pyrrolidin-1-yl)sulfonyl)-3-fluorobenzonitrile] |  | 7.00 to 8.00
N#Cc1ccc(S(=O)(=O)[C@H]2CN(S(=O)(=O)c3ccc(F)cc3Br)C[C@@]2(O)CO)cc1 [Example 22, 4-(((3S,4R)-1-((2-bromo-4-fluorophenyl)sulfonyl)-4-hydroxy-4-(hydroxymethyl)pyrrolidin-3-yl)sulfonyl)benzonitrile] | 7.89 | 7.00 to 8.00
N#Cc1ccc(S(=O)(=O)N2C[C@H](S(=O)(=O)c3ccc(Cl)cc3)[C@@](O)(CO)C2)c(Cl)c1 [Example 23, 3-chloro-4-(((3S,4S)-4-((4-chlorophenyl)sulfonyl)-3-hydroxy-3-(hydroxymethyl)pyrrolidin-1-yl)sulfonyl)benzonitrile] |  | 7.00 to 8.00
N#Cc1ccc(S(=O)(=O)N2C[C@H](S(=O)(=O)c3ccc(Br)cc3)[C@@](O)(CO)C2)c(Cl)c1 [Example 24, 4-(((3S,4S)-4-((4-bromophenyl)sulfonyl)-3-hydroxy-3-(hydroxymethyl)pyrrolidin-1-yl)sulfonyl)-3-chlorobenzonitrile] |  | 7.00 to 8.00
N#Cc1ccc(S(=O)(=O)[C@H]2CN(S(=O)(=O)c3ccc(Cl)cc3C(F)(F)F)C[C@@]2(O)CO)cc1 [Example 25, 4-(((3S,4R)-1-((4-chloro-2-(trifluoromethyl)phenyl)sulfonyl)-4-hydroxy-4-(hydroxymethyl)pyrrolidin-3-yl)sulfonyl)benzonitrile] |  | 8.00 to 10.00
N#Cc1ccc(S(=O)(=O)N2C[C@H](S(=O)(=O)c3ccc(C(F)(F)F)nc3)[C@](O)(CO)C2)c(Cl)c1 [Example 26, 3-chloro-4-(((3R,4S)-3-hydroxy-3-(hydroxymethyl)-4-((6-(trifluoromethyl)pyridin-3-yl)sulfonyl)pyrrolidin-1-yl)sulfonyl)benzonitrile] |  | 7.00 to 8.00
N#Cc1ccc(S(=O)(=O)N2C[C@H](S(=O)(=O)c3ccc(C(F)(F)F)nc3)[C@](O)(CO)C2)c(C(F)(F)F)c1 [Example 27, 4-(((3R,4S)-3-hydroxy-3-(hydroxymethyl)-4-((6-(trifluoromethyl)pyridin-3-yl)sulfonyl)pyrrolidin-1-yl)sulfonyl)-3-(trifluoromethyl)benzonitrile] |  | 7.00 to 8.00
Cc1cc(C(F)(F)F)ccc1S(=O)(=O)N1C[C@H](S(=O)(=O)c2ccc(C#N)cc2)[C@](O)(CO)C1 [Example 28, 4-(((3S,4R)-4-hydroxy-4-(hydroxymethyl)-1-((2-methyl-4-(trifluoromethyl)phenyl)sulfonyl)pyrrolidin-3-yl)sulfonyl)benzonitrile] |  | 7.00 to 8.00
